# Measurements taken from patent publication US11541063B2, “Compositions and products for use in the treatment of bone fractures and defects” (priority 2014, dated 2023).
# Read-outs that look alike come from different tables or passages of the source.
# Tested on: MC3T3-E1 cells
# Conditions: alendronate only (0 nM Stanolone), MC3T3 cells stimulated for 10 days
# Protocol: MC3T3-E1 (ECACC, Acc. No. 99072810) were cultured in α-MEM (Invitrogen, Carlsbad, Calif.) supplemented with 100 U/ml penicillin, 100 ug/ml streptomycin (Invitrogen, Carlsbad, Calif.) and 5% fetal bovine serum (Hyclone, GE Healthcare). Cells were grown under standard conditions (37° C., 5% CO2 and 95% humidity). MC3T3-E1 cells were seeded at a density of 26000 cells/cm2 and seeding of the cells was considered as the day 0 timepoint. On day 1 post-plating, the medium of the MC3T3-E1 cells was replaced with osteogenic medium (the above-mentioned media supplemented with 50 μg/ml Ascorbic Acid (Sigma)), 10 nM β-glycerol phosphate (Sigma) and on day 3 post-plating, hormones or vehicle (0.1% ethanol) were added.
# Cells were lysed for 10 minutes with lysisbuffer (100 mM Potassium phosphate, 0.2% Triton X-100, pH 7.8 containing protease inhibitor cocktail (Roche)). […] The luminescence (1 second) was measured with a Filtermax F5 (Molecular Devices).
# The acidic phosphatase activity of the cells was determined by adding freshly prepared p-NPP buffer (4-nitrophenyl phosphate (Sigma) in 0.1 M NaAc+0.1% Triton X-100, pH5.5) to the cell lysates and incubated for 1.5 hrs at 37° C. and 5% CO2. […] The absorbance was measured at 405 nm with a Filtermax F5 (Molecular Devices). […]
smiles,measurement,setting,value
NCCCC(O)(P(=O)(O)O)P(=O)(O)O [alendronate],ALP/AP activity,50 μM,decreases
same,ALP/AP activity,2 and 10 μM,small increase
